Results on one compound are retold here after paper PMC6234229, “The role of loops B and C in determining the potentiation of GABAA receptors by midazolam” (Pharmacology Research & Perspectives, 2018).

Usually EC50 stands for the concentration that produces a half-maximal response. In general, Hill coefficient refers to a measure of the steepness of the concentration-response curve.

The target in test [1] is α6(P161T)β2γ2 GABAA receptor (Homo sapiens, UniProt P18507+P47870+Q16445, P180T). The test can be described thus: Midazolam potentiation of EC10 GABA currents, whole-cell patch clamp, HEK293T. On the set-up: expressed in transfected cells; host or cells: HEK293T. Format: cell-based. Particulars: for Midazolam potentiation (%): α6(P161T). From the text: (§1) Human (Homo sapiens) GABAA subunits (α1‐6, β2, γ2s) were subcloned into pcDNA3.1+ vectors with a cytomegalovirus (CMV) promoter. The hβ2 and hα3 sequences were humanized rat (Rattus norvegicus) cDNA with amino acid substitutions made to match the human protein sequence. The α1‐3, α5, β2, and γ2s subunits were a generous gift from Neil L. Harrison (Columbia University Medical Center, NY). The α4 subunit was obtained from GenScript (Piscataway, NJ), and the α6 subunit was a generous gift from Robert L. McDonald (Vanderbilt University, TN). All point mutations (listed in Figure 1C) were introduced using the QuikChange Lightening site‐directed mutagenesis kit (Agilent Technologies, Santa Clara, CA) according to the manufacturer's instructions and were confirmed by sequencing (Eurofins MWG Operon, Louisville, KY).
(§2) Human embryonic kidney cells containing the SV40 T‐antigen (HEK293T) were acquired from American Type Culture Collection (ATCC®, Manassas, VA), catalogue number, CRL3216. HEK293T cells were maintained at 37°C and 5% CO2 in Eagle Minimum Essential Medium (MEM) supplemented with 5% fetal bovine serum (Atlanta Biologicals Inc., Flowery Branch, GA), 40 μM L‐glutamine, 100 U/mL penicillin and 0.1 mM streptomycin. Cells were passaged regularly when they reached 70% confluency using trypsin. Cells were not passaged more than 22 times. New cells were revived from frozen stocks at passage 2‐4. Cells used for in vitro electrophysiology experiments were grown on poly‐D‐lysine‐coated glass coverslips (No.2, VWR, Radnor, PA) and transfected with X‐tremeGENE (Roche Diagnostics, Indianapolis, IN) with the desired receptor subunit cDNAs at a 1:1:1 ratio to express αxβ2γ2s receptors (2 μg total cDNA) and with 0.5 μg green fluorescent protein (GFP) as an expression marker. The γ2s incorporation into receptors was tested with zinc inhibition assays regularly.24 Patch clamp experiments were performed on cells at 24‐72 hours post‐transfection. All experiments were performed at 22°C. Experiments consisted of at least five cells recorded per day from at least two transfections across 3‐4 days to control for cell health and transfection efficiency. At least three cells expressing wild‐type receptors were recorded on days that mutant receptors were tested to provide a time‐matched expression control. All reagents were purchased from Sigma‐Aldrich (St. Louis, MO) unless otherwise stated.
(§3) Extracellular solution contained 161 mM NaCl, 3 mM KCl, 1 mM MgCl2, 1.5 mM CaCl2, 10 mM HEPES, and 6 mM D‐glucose, adjusted to pH 7.4 with NaOH (320‐330 mOsm). […] The perfusion system was controlled by protocols written in pClamp 9 (Molecular Devices, LLC., Sunnyvale, CA). Whole‐cell currents were recorded at ‐60 mV, filtered at 100 Hz and sampled at 200 Hz with a MultiClamp 700B amplifier (Molecular Devices, LLC) and DigiData 1322A (Molecular Devices, LLC) digitizer. […] Cells were recorded with the midazolam protocol no more than two times to avoid desensitization and incomplete washout or irreversible modulation.
(§4) Recordings were analyzed using MATLAB (Math Works, Inc., Natick, MA). […] The maximum peak current, EC50 and Hill coefficient were estimated for assays from each cell. When Hill parameters are estimated from whole‐cell recordings, the changes in the parameters across receptor conditions can be ascribed to the following changes in receptor physiology. Changes in maximum current can be due to changes in the single‐channel conductance or the rate of desensitization. Changes in cell surface receptor expression can cause minor changes in maximum current, but are unlikely to occur in the time course of our experimental protocol. […] More often minor changes in the Hill coefficient are attributed to the altered homogeneity in the receptor population expressed by the HEK293T cell. For example, a shallower Hill coefficient could be caused by a shift in the population of receptors from mostly αβγ receptors to a combination of both αβ and αβγ receptors.
(In patch-clamp work, channel activity is measured electrically.)

Test [2] deals with α6(R100H)β2γ2 GABAA receptor (Homo sapiens, UniProt P18507+P47870+Q16445, R119H). The test is described as above. The test is classed as cell-based. On the set-up: expressed in transfected cells; host or cells: HEK293T.
Description: as §1, §2, §3, §4

Sequence of α6(R100H)β2γ2 GABAA receptor (Q16445 20-453 R119H): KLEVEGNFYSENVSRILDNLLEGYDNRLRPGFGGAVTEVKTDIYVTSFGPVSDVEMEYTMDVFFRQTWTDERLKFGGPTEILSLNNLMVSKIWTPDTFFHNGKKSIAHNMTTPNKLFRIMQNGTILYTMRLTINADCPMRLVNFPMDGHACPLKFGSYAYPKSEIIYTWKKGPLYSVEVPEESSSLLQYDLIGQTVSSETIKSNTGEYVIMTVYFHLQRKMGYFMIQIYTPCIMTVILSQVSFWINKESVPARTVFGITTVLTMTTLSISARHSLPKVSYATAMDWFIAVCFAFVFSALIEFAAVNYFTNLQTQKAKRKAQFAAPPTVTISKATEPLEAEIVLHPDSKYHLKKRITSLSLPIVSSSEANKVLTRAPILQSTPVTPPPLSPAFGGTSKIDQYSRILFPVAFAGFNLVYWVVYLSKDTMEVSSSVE
Sequence of α6(R100H)β2γ2 GABAA receptor (P47870 26-474 isoform P47870-1 limits assumed, stated change not applied): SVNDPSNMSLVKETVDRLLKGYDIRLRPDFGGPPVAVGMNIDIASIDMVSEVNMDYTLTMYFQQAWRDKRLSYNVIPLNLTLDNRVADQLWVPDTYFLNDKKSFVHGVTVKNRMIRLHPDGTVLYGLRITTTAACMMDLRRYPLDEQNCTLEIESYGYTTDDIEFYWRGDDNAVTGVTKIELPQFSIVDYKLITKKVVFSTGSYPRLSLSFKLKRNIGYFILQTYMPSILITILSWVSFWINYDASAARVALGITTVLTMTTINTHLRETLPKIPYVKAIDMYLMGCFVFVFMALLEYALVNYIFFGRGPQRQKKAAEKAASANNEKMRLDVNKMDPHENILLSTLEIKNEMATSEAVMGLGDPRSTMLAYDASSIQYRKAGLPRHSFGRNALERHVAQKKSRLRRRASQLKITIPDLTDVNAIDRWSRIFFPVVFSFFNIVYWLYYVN
Sequence of α6(R100H)β2γ2 GABAA receptor (P18507 40-467 isoform P18507-1 limits assumed, stated change not applied): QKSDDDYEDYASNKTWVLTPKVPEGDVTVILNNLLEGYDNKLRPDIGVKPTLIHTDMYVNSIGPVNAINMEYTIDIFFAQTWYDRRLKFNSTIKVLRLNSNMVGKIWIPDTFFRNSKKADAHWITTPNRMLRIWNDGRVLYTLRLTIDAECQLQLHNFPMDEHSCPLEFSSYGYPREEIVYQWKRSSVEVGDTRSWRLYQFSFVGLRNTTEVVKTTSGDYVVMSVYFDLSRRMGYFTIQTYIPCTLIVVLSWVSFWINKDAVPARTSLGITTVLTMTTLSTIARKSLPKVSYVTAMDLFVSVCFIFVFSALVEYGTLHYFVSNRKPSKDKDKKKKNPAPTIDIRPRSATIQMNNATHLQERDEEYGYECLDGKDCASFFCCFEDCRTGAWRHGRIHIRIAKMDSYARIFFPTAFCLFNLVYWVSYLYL
Sequence of α6(P161T)β2γ2 GABAA receptor (Q16445 20-453 P180T): as the sequence (Q16445 20-453 R119H) above, with H100R, P161T counted along it
Sequence of α6(P161T)β2γ2 GABAA receptor (P47870 26-474 isoform P47870-1 limits assumed, stated change not applied): as the sequence (P47870 26-474 isoform P47870-1 limits assumed, stated change not applied) above
Sequence of α6(P161T)β2γ2 GABAA receptor (P18507 40-467 isoform P18507-1 limits assumed, stated change not applied): as the sequence (P18507 40-467 isoform P18507-1 limits assumed, stated change not applied) above

Take `Cc1ncc2n1-c1ccc(Cl)cc1C(c1ccccc1F)=NC2` [midazolam]: the “Midazolam potentiation (%)” value in test [1] (10 nM MDZ + EC10 GABA) came to 7.52 ± 3.56%; in test [1] (50 nM MDZ + EC10 GABA), 13.89 ± 3.99%; in test [1] (100 nM MDZ + EC10 GABA) it was 24.46 ± 3.86%; in test [1] (500 nM MDZ + EC10 GABA), 17.25 ± 3.52%; in test [1] (1000 nM MDZ + EC10 GABA) it was 16.98 ± 4.08%; in test [2] (10 nM MDZ + EC10 GABA, α6(R100H)), 14.39 ± 8.03%. Moreover, the “Midazolam potentiation (%)” value in test [2] (50 nM MDZ + EC10 GABA, α6(R100H)) came to 45.91 ± 12.95%; in test [2] (100 nM MDZ + EC10 GABA, α6(R100H)) it was 71.31 ± 17.31%; in test [2] (500 nM MDZ + EC10 GABA, α6(R100H)), 85.96 ± 19.92%; in test [2] (1000 nM MDZ + EC10 GABA, α6(R100H)), 79.13 ± 19.87%. For the same compound, in test [1] (α6(P161T)β2γ2), the “responsiveness to midazolam potentiation” value is reported as “failed to confer midazolam responsiveness”. Besides, the EC50 in test [2] was found to be 41.9 ± 6.02 nM. For the same compound, in test [2] (α6(R100H), Hill fit, midazolam 10-1000 nM + EC10 GABA), the “Max potentiation (%)” value is 93.27 ± 22.84%. For the same compound, in test [2] (α6(R100H), midazolam Hill fit), the Hill coefficient is 2.310 ± 0.56.
